{"source": "paper PMC6800369", "about": "(Proceedings of the National Academy of Sciences of the …, 2019)", "key": {"PRK": {"target": "T1, PRK (Thermosynechococcus vestitus, UniProt Q8DHN2)", "T1 sequence (Q8DHN2 1-334)": "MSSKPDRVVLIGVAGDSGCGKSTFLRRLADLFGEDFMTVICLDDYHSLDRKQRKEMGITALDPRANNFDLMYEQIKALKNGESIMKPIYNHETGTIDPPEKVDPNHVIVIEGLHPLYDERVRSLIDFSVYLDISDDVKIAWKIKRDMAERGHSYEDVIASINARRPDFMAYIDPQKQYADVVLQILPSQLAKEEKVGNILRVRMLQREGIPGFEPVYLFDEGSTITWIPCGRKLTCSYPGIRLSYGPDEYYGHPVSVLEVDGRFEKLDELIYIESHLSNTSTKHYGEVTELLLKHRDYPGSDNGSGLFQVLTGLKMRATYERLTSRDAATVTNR", "experiment": "ADP production, coupled assay with ADP-hexokinase", "type": "biochemical", "conditions": "ternary complex reduced with DTT"}, "GAPDH": {"target": "T2, GAPDH (Thermosynechococcus vestitus, UniProt Q8DIW5)", "T2 sequence (Q8DIW5 1-337)": "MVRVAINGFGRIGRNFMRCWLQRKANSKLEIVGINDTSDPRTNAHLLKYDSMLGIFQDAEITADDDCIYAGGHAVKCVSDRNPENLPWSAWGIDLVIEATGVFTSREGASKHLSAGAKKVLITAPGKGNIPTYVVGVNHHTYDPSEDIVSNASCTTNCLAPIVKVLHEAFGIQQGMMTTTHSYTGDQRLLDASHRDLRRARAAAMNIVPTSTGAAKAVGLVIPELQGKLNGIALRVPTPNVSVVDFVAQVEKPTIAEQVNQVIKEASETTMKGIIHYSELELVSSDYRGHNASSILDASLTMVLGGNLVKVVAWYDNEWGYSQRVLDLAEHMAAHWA", "experiment": "X-ray crystal structure", "type": "binding"}, "GAPDH-CP12": {"target": "T3, GAPDH-CP12 (Thermosynechococcus vestitus, UniProt Q8DIW5)", "T3 sequence (Q8DIW5 1-337)": "T2 sequence (Q8DIW5 1-337)", "T3 sequence (Q8DHX3 1-75 partner)": "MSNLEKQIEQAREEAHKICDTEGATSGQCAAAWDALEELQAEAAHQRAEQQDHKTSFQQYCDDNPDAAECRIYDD", "experiment": "X-ray crystal structure", "type": "binding", "conditions": "proximal (CP12-occupied) and distal sites"}}, "data": [{"molecule": "Nc1ncnc2c1ncn2[C@@H]1O[C@H](COP(=O)(O)OP(=O)(O)OP(=O)(O)O)[C@@H](O)[C@H]1O", "note": "[ATP]", "values": [{"measurement": "ADP production, coupled assay with ADP-hexokinase", "setting": "PRK; co-substrate ribulose 5-phosphate", "result": "measuring ADP production from ATP and ribulose 5-phosphate (Ru5P)"}]}, {"molecule": "NC(=O)c1ccc[n+]([C@@H]2O[C@H](COP(=O)(O)OP(=O)(O)OC[C@H]3O[C@@H](n4cnc5c(N)ncnc54)[C@H](OP(=O)(O)O)[C@@H]3O)[C@@H](O)[C@H]2O)c1", "note": "[NADP^+]", "values": [{"measurement": "X-ray crystal structure", "setting": "GAPDH; NAD+ exchanged for NADP+ by turnover", "result": "this could be exchanged for NADP^+ by turning over the enzyme"}]}, {"molecule": "NC(=O)c1ccc[n+]([C@@H]2O[C@H](COP(=O)(O)OP(=O)(O)OC[C@H]3O[C@@H](n4cnc5c(N)ncnc54)[C@H](O)[C@@H]3O)[C@@H](O)[C@H]2O)c1", "note": "[NAD^+]", "values": [{"measurement": "X-ray crystal structure", "setting": "GAPDH; NAD+ bound from E. coli expression", "result": "GAPDH-NAD^+, GAPDH-NADP^+"}, {"measurement": "X-ray crystal structure", "setting": "GAPDH-CP12", "result": "The CP12-bound (proximal) site makes extensive contacts with both NAD^+ and GAPDH"}]}, {"molecule": "O=C(CO)[C@H](O)[C@H](O)COP(=O)(O)O", "note": "[ribulose 5-phosphate]", "values": [{"measurement": "ADP production, coupled assay with ADP-hexokinase", "setting": "PRK; co-substrate ATP", "result": "measuring ADP production from ATP and ribulose 5-phosphate (Ru5P)"}]}]}
